Measurements as given in PubChem BioAssay (NCI).
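Method: 48-hour compound exposure of cells in 96-well plates, five concentrations, linear interpolation of endpoints. The concentration for full growth arrest is given as TGI.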

What was measured:
Experiment in all cases: NCI tumour cell line growth inhibition, 48 h
HCC-2998 colon = test system: HCC-2998 colon
HOP-92 NSCLC = test system: HOP-92 NSCLC
MDA-MB-231 breast = test system: MDA-MB-231 breast
PC-3 prostate = test system: PC-3 prostate
RPMI-8226 leukemia = test system: RPMI-8226 leukemia
SF-295 CNS = test system: SF-295 CNS
SK-OV-3 ovarian = test system: SK-OV-3 ovarian
SNB-19 CNS = test system: SNB-19 CNS
U251 CNS = test system: U251 CNS
UACC-257 melanoma = test system: UACC-257 melanoma

Row | SMILES | TGI (HCC-2998 colon) | TGI (HOP-92 NSCLC) | TGI (MDA-MB-231 breast) | TGI (PC-3 prostate) | TGI (RPMI-8226 leukemia) | TGI (SF-295 CNS) | TGI (SK-OV-3 ovarian) | TGI (SNB-19 CNS) | TGI (U251 CNS) | TGI (UACC-257 melanoma)
1 | Nc1ccc(Oc2ccc(C34CC5CC6C3CC3CC4C(C5)C6(c4ccc(Oc5ccc(N)cc5)cc4)C3)cc2)cc1 | 38.9 µM | 11.7 µM | 65.7 µM | 51.7 µM | 47.5 µM | 81.4 µM | 53.9 µM | > 61.4 µM | 14.9 µM | > 32.5 µM
2 | CN=c1nc2sc3c(c2c(NC(=S)NC)s1)CCCC3 | > 100 µM | > 100 µM | > 100 µM | > 100 µM | > 100 µM | > 100 µM | > 100 µM | > 100 µM | > 100 µM | > 100 µM
3 | CCOc1cc2c(OCc3ccccc3)cc3c4cc(OC)c(OC)cc4c[n+](C)c3c2cc1OC | 21.6 µM | 2.08 µM | 6.65 µM | 4.84 µM | > 29.6 µM | > 86.3 µM | 19.4 µM | 2.44 µM | 2.66 µM | 4.95 µM
4 | CN(Cc1cnc2nc(N)nc(N)c2n1)c1ccc(C(=O)NC(CCC(=O)NCCC(P(=O)(O)O)P(=O)(O)O)C(=O)O)cc1 (stereo not given) | > 100 µM | > 100 µM | > 100 µM | > 100 µM | > 100 µM | > 100 µM | > 100 µM | > 100 µM | > 100 µM | > 100 µM
5 | C1C2CC3CC1CC(Nc1nc(NC45CC6CC(CC(C6)C4)C5)nc(NC45CC6CC(CC(C6)C4)C5)n1)(C2)C3 | > 100 µM | > 100 µM | > 100 µM | > 100 µM | > 100 µM | > 100 µM | > 100 µM | > 100 µM | > 100 µM | > 100 µM
6 | COc1ccc(N2C(=O)C(=O)N(c3ccccc3[N+](=O)[O-])C2=S)cc1 | > 100 µM | 57.4 µM | > 100 µM | > 100 µM | 94.2 µM | > 100 µM | 86.1 µM | > 100 µM | > 100 µM | 47.3 µM
7 | O=C(O)CC1NC(/C(=C/c2ccccc2)NC(=O)c2ccccc2)OC1=O (stereo not given) | > 100 µM | > 100 µM | 69.7 µM | > 100 µM | 63.4 µM | > 100 µM | > 100 µM | 67.6 µM | 34.5 µM | > 100 µM
8 | CN1CCN(C(=O)CCNC(=O)Cc2ccc(C(=O)c3ccccc3)cc2)CC1 | > 100 µM | > 100 µM | > 100 µM | > 100 µM | > 100 µM | > 100 µM | > 100 µM | > 100 µM | > 100 µM | > 100 µM
9 | C=C1C(=O)C[C@H]2C(=C)C(=O)O[C@@H]2C2C1CC[C@@]2(C)O (stereo not given in full) | 38.1 µM | > 100 µM | 75.2 µM | > 100 µM | > 100 µM | > 100 µM | > 100 µM | > 100 µM | > 100 µM | 56.1 µM
10 | CCCC[C@@H]1CCN2C[C@@H](O)[C@@H](O)[C@@H]2[C@H]1O | > 100 µM | > 100 µM | > 100 µM | > 100 µM | > 100 µM | > 100 µM | > 100 µM | > 100 µM | > 100 µM | > 100 µM
11 | CC(C)CC1C(=O)NCCC(NC(=O)C(Cc2ccc(OC(C)(C)C)cc2)NC(=O)OC(C)(C)C)C(=O)NC(Cc2ccccc2)C(=O)NC(Cc2ccccc2)NC1=O (stereo not given) | 35.4 µM | 32.1 µM | 19.9 µM | 46.1 µM | 54.4 µM | 22.8 µM | 45.9 µM | 42.4 µM | 27.2 µM | 26.2 µM
12 | COC(=O)CC(C#N)(OP1(=O)OC(c2ccccc2)C(C)N1C)c1ccccc1 (stereo not given) | 31.6 µM | 85.8 µM | > 100 µM | > 100 µM | 70.2 µM | > 100 µM | > 100 µM | > 100 µM | 87.3 µM | 46.4 µM
13 | CN(C(=O)C1=CCC2(CC1)OCCO2)c1ccccc1OS(=O)(=O)C(F)(F)F | > 100 µM | > 100 µM | > 100 µM | > 100 µM | > 100 µM | > 100 µM | > 100 µM | > 100 µM | > 100 µM | > 100 µM
14 | OC1(C(F)(F)F)OCCN=C1C(F)(F)F (stereo not given) | > 100 µM | > 100 µM | > 100 µM | > 100 µM | > 100 µM | > 100 µM | > 100 µM | > 100 µM | > 100 µM | > 100 µM
15 | Cc1cc(C)nc(NC(=O)c2ccc(Br)s2)c1 | > 100 µM | > 100 µM | 81.6 µM | > 100 µM | 16.6 µM | > 100 µM | > 100 µM | > 100 µM | > 100 µM | > 100 µM
16 | CCOC(=O)c1c(NC(=O)c2cccs2)sc2c1CCCC2 | > 100 µM | > 100 µM | 69.8 µM | > 100 µM | > 100 µM | > 100 µM | 79.5 µM | > 81.2 µM | > 91.9 µM | > 100 µM
17 | C/C(=N\NC(=S)N1CCCCC1)c1nc2ncccc2[nH]1 | > 100 µM | 43.1 µM | > 100 µM | > 100 µM | 30.1 µM | 88.7 µM | > 100 µM | > 100 µM | > 100 µM | 31.9 µM
